What all share (assay): NCI anticancer screen, dose series, 48 h
Experiment [1] deals with A549 NSCLC.
Experiment [2] relates to HCC-2998 colon.
In experiment [3] the test system is HL-60(TB) leukemia.
Experiment [4] has as its system M14 melanoma.
Experiment [5] has as its system OVCAR-3 ovarian.
In experiment [6] the test system is SF-295 CNS.
The subject of experiment [7] is SF-539 CNS.
Experiment [8] relates to SK-MEL-2 melanoma.
Experiment [9] deals with TK-10 renal.
Experiment [10] concerns U251 CNS.

Each structure is given as a SMILES string.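 Cells were grown in 96-well plates and exposed to each compound for 48 hours at five concentrations; endpoints were interpolated linearly between bracketing concentrations, or set to the highest concentration if not reached. GI50 marks 50% less growth. TGI denotes the concentration required for complete inhibition of growth.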 Where only a bound is given, the exact number is not on record here.

Turning to `CCc1nc(N)nc(N)c1C#CC(C)c1cc(-c2ccnc(C)c2)c2oc(C)nc2c1` (stereo not given), the GI50 in experiment [1] is < 0.01 µM; in experiment [2] it was 0.0206 µM; in experiment [3], < 0.01 µM; in experiment [4], < 0.01 µM; in experiment [5], 0.0893 µM; in [6], < 0.01 µM. In addition, the GI50 in [7] was < 0.01 µM; in experiment [8], 1.9 µM; in experiment [9], 0.126 µM; in [10] it was < 0.01 µM. Moreover, the TGI in [1] was 11.7 µM; in [2], 5.95 µM; in [3] it was 2.22 µM; in experiment [4], 5.69 µM; in [5] it was 15 µM; in [6], 6.39 µM. The TGI in experiment [7] was found to be 2.4 µM; in experiment [8] it was 10.6 µM; in [9], 12 µM; in experiment [10], 11.9 µM.
Regarding `CC(=O)n1c(-c2ccc(Cl)c(Cl)c2)cn(-c2ccc(Cl)cc2)c1=O`, the GI50 in experiment [1] is 39.3 µM; in experiment [2], 91.5 µM; in experiment [3] it was 34.8 µM; in experiment [4] it was 27.6 µM; in [5] it was 51.2 µM; in experiment [6] it was 11.9 µM. Also, the GI50 is 14.1 µM in experiment [7], 22.4 µM in [8], 18.7 µM in experiment [9] and 16.3 µM in experiment [10]. In addition, the TGI in experiment [1] was > 100 µM; in experiment [2] it was > 100 µM; in experiment [3] it was > 100 µM; in experiment [4], > 100 µM; in [5], > 100 µM; in [6], 28.8 µM. For the same compound, the TGI worked out at 31.9 µM in experiment [7], 69.2 µM in experiment [8], 38 µM in experiment [9] and 37.5 µM in experiment [10].
For `COc1cc(/C=C\c2ccc(Cl)cc2)cc(OC)c1OC`, the TGI in [1] was > 100 µM; in experiment [2], 32.7 µM; in experiment [3], 2.45 µM; in experiment [4], 22.7 µM; in experiment [5], 0.437 µM; in experiment [6] it was 0.218 µM. Moreover, the TGI in experiment [7] is 0.564 µM; in experiment [8] it was 16.3 µM; in experiment [9] it was > 100 µM; in experiment [10] it was > 100 µM.
Turning to `Oc1ccc(Cn2c(-c3ccc(O)cc3)nc3ccccc32)cc1`, the TGI was > 100 µM in [1]; > 100 µM in experiment [2]; > 31.6 µM in [3]; > 100 µM in [4]; > 100 µM in experiment [5]; > 100 µM in experiment [6]. In addition, the TGI in experiment [7], in experiment [8], in [9] and in [10] was > 100 µM in each case.
For the compound `CCOC(=O)c1cn(CC)c2cc3c(cc2c1=O)SCS3`, the TGI in experiment [1], in [2], in [3], in [4], in experiment [5] and in [6] was > 100 µM in each case. The TGI in experiment [7], in experiment [8], in experiment [9] and in [10] was > 100 µM each time.
Take `NCCSC(C[N+](=O)[O-])c1ccccc1Cl` (stereo not given): the GI50 in experiment [1] was 4.87 µM; in [2] it was 2.1 µM; in experiment [3] it was 3.38 µM; in [4], 2.14 µM; in experiment [5] it was 1.88 µM; in experiment [6], 1.5 µM. For the same compound, the GI50 was 2.42 µM in [7], 21.9 µM in experiment [8], 5.59 µM in experiment [9] and 1.85 µM in [10]. In addition, the TGI in [1] was 15.5 µM; in experiment [2] it was 4.03 µM; in [3] it was > 23.3 µM; in experiment [4] it was 6.01 µM; in experiment [5] it was 3.5 µM; in experiment [6], 3.83 µM. For the same compound, the TGI in experiment [7] was 5.49 µM; in experiment [8] it was 51.5 µM; in experiment [9], 19 µM; in [10], 3.81 µM.
As to `O=CN1N=C(c2ccc(Nc3ccnc4cc(Cl)ccc34)cc2)CC1c1ccc(Cl)cc1` (stereo not given), the GI50 is 0.992 µM in experiment [1]; 1.61 µM in experiment [2]; 0.376 µM in experiment [3]; 0.622 µM in experiment [4]; 0.352 µM in experiment [5]; 0.274 µM in experiment [6]. The GI50 in experiment [7] was 0.575 µM; in experiment [8] it was 7.86 µM; in experiment [9], 9.57 µM; in experiment [10] it was 0.511 µM. In addition, the TGI in experiment [1] was > 100 µM; in [2], 8.11 µM; in experiment [3] it was > 100 µM; in [4] it was > 100 µM; in [5] it was > 100 µM; in [6], 1.08 µM. Moreover, the TGI in experiment [7], in experiment [8], in experiment [9] and in experiment [10] was > 100 µM throughout.
Consider `CCCC(CCC)C(=O)OCC1(CO)C/C(=C\c2ccc(C(F)(F)F)cc2)C(=O)O1` (stereo not given), for which the GI50 in [1] is 5.69 µM; in experiment [2] it was 10.9 µM; in [3], 0.308 µM; in experiment [4], 10.7 µM; in [5] it was 19.8 µM; in experiment [6], 2.44 µM. The GI50 in experiment [7] was 11.8 µM; in experiment [8] it was 18.6 µM; in [9] it was 5.62 µM; in [10], 7.61 µM. Moreover, the TGI in experiment [1] was found to be 26.3 µM; in experiment [2], 24 µM; in [3], 8.13 µM; in experiment [4] it was 23.2 µM; in experiment [5], 36.1 µM; in experiment [6], 17.7 µM. The TGI in experiment [7] amounted to 24.2 µM; in experiment [8], 36 µM; in experiment [9] it was 20.3 µM; in [10], 22.5 µM.
